Laboratory results taken from patent US20060276446A1, “Tricyclic 6-alkylidene-penems as class-D beta-lactamases inhibitors” (priority 2005, published 2006).

Columns and labels:
[1] = tested on: class-D producing organism E. coli GC 2883 (OXA-10 + PSE-2); assay: Antimicrobial susceptibility testing, microbroth dilution (NCCLS): piperacillin combined with β-lactamase inhibitor; format: cell-based; settings: MIC of piperacillin combined with constant 4 μg/mL of the β-lactamase inhibitor (example compound), 35° C. for 18 hours
Procedure: Antimicrobial susceptibility testing. The in vitro activities of the antibiotic, piperacillin in this case, against resistant pathogens expressing class-D enzymes were determined by the microbroth dilution method as recommended by the National Committee for Clinical Laboratory Standards (NCCLS). (NCCLS. 2000. Methods for Dilution Antimicrobial Susceptibility Tests for Bacteria That Grow Aerobically; Approved Standards: M7-A5, vol. 19. National Committe for Clinical Laboratory Standards, Villanova, Pa.). Mueller-Hinton II broth (MHBII)(BBL Cockeysville, Md.), was used for the testing procedure. Microtiter plates containing 50 μl per well of two-fold serial dilutions of piperacillin combined with a constant amount (4 μg/mL) of β-lactamase inhibitor (final concentration) were inoculated with 50 μl of inoculum to yield the appropriate density (10^5 CFU/mL) in 100 μL. The plates were incubated for 18-22 hours at 35° C. in ambient air. […] Both OXA-10 and PSE-2 are class D β-lactamases. (Bush, K., Jacoby, G. A., Medeiros, A. A. Antimicrob. Agents Chemother., 1995, 39, 1211).

Row | Molecule | Minimal Inhibitory Concentration (MIC50) [1] [µg/mL] | melting point
1 | O=C([O-])C1=CS[C@@H]2C(=Cc3cc4n(n3)Cc3ccccc3OC4)C(=O)N12.[Na+] [Example 11, (5R,6E&Z)-7-oxo-6-(4H,10H-pyrazolo[5,1-c][1,4]benzoxazepin-2-ylmethylene)-4-thia-1-azabicyclo[3.2.0]hept-2-ene-2-carboxylic acid, sodium salt] | 4 | –
2 | O=C(O)C1=CS[C@@H]2/C(=C\c3cn4nc5c(c4s3)CCC5)C(=O)N12 [Example 18, (5R),(6Z)-6-(7,8-dihydro-6H-cyclopenta[3.4]pyrazolo[5,1-b][1,3]thiazol-2-ylmethylene)-7-oxo-6-4-thia-1-azabicyclo[3.2.0]hept-2-ene-2-carboxylic acid] | 16 | –
3 | O=C([O-])C1=CS[C@@H]2/C(=C\c3cccc4nc5n(c34)CCS5)C(=O)N12.[Na+] [Example 28, (5R,6Z)-6-(2,3-dihydro[1,3]thiazolo[3,2-a]benzimidazol-4-ylmethylene)-7-oxo-4-thia-1-azabicyclo[3.2.0]hept-2-ene-2-carboxylic acid, sodium salt] | 16 | –
4 | (5R,6Z)-7-oxo-6-(4H-thieno[2′,3′:4,5]thiopyrano[2,3-b]pyridin-2-ylmethylene)-4-thia-1-azabicyclo[3.2.0]hept-2-ene-2-carboxylic acid (Sodium salt) [Example 21] | 64 | –
5 | O=C([O-])C1=CS[C@@H]2/C(=C\c3ccc4nc5sccn5c4c3)C(=O)N12.[Na+] [Example 30, (5R,6Z)-7-oxo-6-([1,3]thiazolo[3,2-a]benzimidazol-6-ylmethylene)-4-thia-1-azabicyclo[3.2.0]hept-2-ene-2-carboxylic acid, sodium salt] | – | > 250 °C
6 | O=C([O-])C1=CS[C@@H]2/C(=C\c3ccc4nc5n(c4c3)CCCS5)C(=O)N12.[Na+] [Example 29, (5R,6Z)-6-(3,4-dihydro-2H-[1,3]thiazino[3,2-a]benzimidazol-7-ylmethylene)-7-oxo-4-thia-1-azabicyclo[3.2.0]hept-2-ene-2-carboxylic acid, sodium salt] | – | > 250 °C
7 | O=C(O)C1=CS[C@@H]2/C(=C\c3cn4c5c(sc4n3)CCC5)C(=O)N12 [Example 5, (5R),(6Z)-6-(6,7-dihydro-5H-cyclopenta[d]imidazo[2,1-b][1,3]thiazol-2-ylmethylene)-7-oxo-4-thia-1-azabicyclo[3.2.0]hept-2-ene-2-carboxylic acid] | 2 | –
8 | O=C(O)C1=CS[C@@H]2/C(=C\c3cn4c(ccc5ccccc54)n3)C(=O)N12 [Example 4, (5R),(6Z)-6-Imidazo[1,2-a]quinolin-2-ylmethylene-7-oxo-4-thia-1-azabicyclo[3.2.0]hept-2-ene-2-carboxylic acid] | 4 | –
9 | O=C(O)C1=CS[C@@H]2/C(=C\c3cn4c(n3)sc3cc(Cl)ccc34)C(=O)N12 [Example 3] | 2 | –
10 | Cn1c2ccccc2n2cc(/C=C3/C(=O)N4C(C(=O)O)=CS[C@H]34)nc12 [Example 20, (5R),(6Z)-8-[(9-methyl-9H-imidazo[1,2-a]benzimidazol-2-yl)methylene]-7-oxo-4-thia-1-azabicyclo[3.2.0]hept-2-ene-2-carboxylic acid] | 64 | –
11 | O=C([O-])C1=CS[C@@H]2/C(=C\c3cn4c5c(c(OCCOCc6ccccc6)nc4n3)CCC5)C(=O)N12.[Na+] [Example 27, (5R,6Z)-6-({5-[2-(benzyloxy)ethoxy]-7,8-dihydro-6H-cyclopenta[e]imidazo[1,2-a]pyrimidin-2-yl}methylene)-7-oxo-4-thia-1-azabicyclo[3.2.0]hept-2-ene-2-carboxylic acid, sodium salt] | – | > 250 °C
12 | CCOC(=O)N1CCc2c(oc3cc(/C=C4/C(=O)N5C(C(=O)[O-])=CS[C@H]45)nn23)C1.[Na+] [Example 33] | 8 | –
13 | Cc1cccc2sc3nc(/C=C4/C(=O)N5C(C(=O)O)=CS[C@H]45)cn3c12 [Example 13] | 4 | –
14 | O=C([O-])C1=CS[C@@H]2/C(=C\c3cn4c(n3)-c3ccccc3C4)C(=O)N12.[Na+] [Example 12, (5R),(6Z)-6-(5H-Imidazo[2,1-a]isoindol-2-ylmethylene)-7-oxo-4-thia-1-aza-bicyclo[3.2.0]hept-2-ene-2-carboxylic acid sodium salt] | 16 | –
15 | O=C([O-])C1=CS[C@@H]2/C(=C\c3cn4c(cnc5ccccc54)n3)C(=O)N12.[Na+] [Example 6, (5R),(6Z)-6-(Imidazo[1,2-a]quinoxaline-2-ylmethylene)-7-oxo-4-thia-1-azabicyclo[3.2.0]hepto-2-ene-2-carboxylic acid, sodium salt] | 0.06 | –
16 | O=C(O)C1=CS[C@@H]2/C(=C\c3cn4c(n3)sc3cc(F)ccc34)C(=O)N12 [Example 14] | 4 | –
17 | O=C([O-])C1=CS[C@@H]2/C(=C\c3nc4ncc5c(n4n3)CCC3(C5)OCCO3)C(=O)N12.[Na+] [Example 24, (5R,6Z)-6-(8′,9′-dihydro-6′H-spiro[1,3-dioxolane-2,7′-[1,2,4]triazolo[1,5-a]quinazolin]-2′-ylmethylene)-7-oxo-4-thia-1-azabicyclo[3.2.0]hept-2-ene-2-carboxylic acid, sodium salt] | – | > 250 °C (dec.)
18 | O=C(O)C1=CS[C@@H]2/C(=C\c3cn4c(nc5ccccc54)s3)C(=O)N12 [Example 17, (5R),(6Z)-7-oxo-6-([1,3]thiazolo[3,2-a]benzimidazol-2-ylmethylene)-4-thia-1-azabicyclo[3.2.0]hept-2-ene-2-carboxylic acid] | 32 | –
19 | Cc1ccc2c(c1)sc1nc(/C=C3/C(=O)N4C(C(=O)O)=CS[C@H]34)cn12 [Example 7] | 2 | –
20 | COc1ccc2c(c1)sc1nc(/C=C3/C(=O)N4C(C(=O)O)=CS[C@H]34)cn12 [Example 2] | 4 | –
21 | O=C([O-])C1=CS[C@@H]2/C(=C\c3cn4c(n3)nc3n4CCCC3)C(=O)N12.[Na+] [Example 8, (5R),(6Z)-6-(4,5,6,7-tetrahydro-1,3a,3b,8-tetraaza-cyclopenta[a]indene-2-ylmethylene)-7-oxo-4-thia-1-aza-bicyclo[3.2.0]hept-2-ene-2-carboxylic acid sodium salt] | 2 | –
22 | Cc1nc2nc(/C=C3/C(=O)N4C(C(=O)[O-])=CS[C@H]34)nn2c2c1CCCC2.[Na+] [Example 25, (5R,6Z)-6-[(5-methyl-6,7,8,9-tetrahydro[1,2,4]triazolo[1,5-a]quinazolin-2-yl)methylene]-7-oxo-4-thia-1-azabicyclo[3.2.0]hept-2-ene-2-carboxylic acid, sodium salt] | – | 250 °C (dec.)
23 | O=C(O)C1=CS[C@@H]2/C(=C\c3ccc4c(c3)sc3nccn34)C(=O)N12 [Example 16, (5R),(6Z)-6-(imidazo[2,1-b]bebzothiazol-7-ylmethylene)-7-oxo-4-thia-1-azabicyclo[3.2.0]hept-2-ene-2-carboxylic acid] | 32 | –
24 | O=C(O)C1=CS[C@@H]2/C(=C\c3cn4c5c(sc4n3)CCCC5)C(=O)N12 [Example 19, (5R),(6Z)-7-oxo-6-(5,6,7,8-tetrahydroimidazo[2,1-b][1,3]benzothiazol-2-ylmethylene)-4-thia-1-azabicyclo[3.2.0]hept-2-ene-2-carboxylic acid] | 2 | –
25 | O=C(O)C1=CS[C@@H]2/C(=C\c3cn4c5c(sc4n3)COCC5)C(=O)N12 [Example 15, (5R),(6Z)-6-(5,8-dihydro-6H-imidazo[2,1-b]pyrano[4,3-d][1,3]thiazol-2-ylmethylene)-7-oxo-4-thia-1-azabicyclo[3.2.0]hept-2-ene-2-carboxylic acid] | 4 | –
